US8618082B2, “Lupeol anti-tumor agent and uses thereof” (Wisconsin Alumni Research Foundation, priority 2004, dated 2013)

Experiments:
NFκB/p65 = assay: TPA-induced NFκB/p65 activation and nuclear translocation (western blot); type: in vivo, mouse; conditions: topical Lupeol prior to TPA
Protocol: FIG. 7. Inhibitory effect of Lupeol on TPA-induced NF-κB activation and its subsequent translocation to nucleus in CD-1 mice. (a) At different times after treatment, the animals were sacrificed, nuclear lysates were prepared, and protein expression was determined. The values above each lane indicate relative density of the band.
The animals were shaved on the dorsal side of the skin, divided into four groups and treated topically on the shaved area with either 0.4 ml vehicle (acetone), or TPA (3.2 nmol/0.4 ml acetone/animal, v/v), or Lupeol (1 or 2 mg/0.2 ml acetone/animal, w/v) followed 30 min later with TPA (3.2 nmol/0.2 ml acetone/animal). Animals were sacrificed at different times point i.e. 6, 12, 24 and 48 h post TPA treatment. […]
(§1) Epidermis from the whole skin was separated as described earlier (Katiyar et al., 1999) and was homogenized in ice-cold lysis buffer [50 mM Tris-HCl, 150 mM NaCl, 1 mM EGTA, 1 mM EDTA, 20 mM NaF, 100 mM Na3VO4, 0.5% NP-40, 1% Triton X-100, 1 mM PMSF (pH 7.4)] with freshly added protease inhibitor cocktail, Protease Inhibitor Cocktail Set III (Calbiochem, La Jolla, Calif., USA). […] The protein content in the lysates was measured by DC BioRad assay (BioRad Laboratories, Hercules, Calif.) as per the manufacturer's protocol. […]

[1] = test system: NFκB-DNA binding activity; assay: NFκB-DNA binding by electrophoretic mobility shift assay (EMSA); type: in vivo; conditions: prior application of Lupeol to mouse skin
Protocol: (b) At different times after treatment, the animals were sacrificed, nuclear lysates were prepared, and DNA binding was determined by […] as described under ‘Materials and Methods’. C1, C2, and C3 refer to inter experimental controls, where C1 represents biotin-EBNA (epistein barr virus nuclear antigen) control DNA, C2 represents Biotin-EBNA control DNA and EBNA extract and C3 represents Biotin-EBNA control DNA and EBNA extract plus 200 fold molar excess of EBNA DNA.
Epidermis from the whole skin was separated as described earlier (Katiyar et al., 1999) and was homogenized in ice-cold lysis buffer [50 mM Tris-HCl, 150 mM NaCl, 1 mM EGTA, 1 mM EDTA, 20 mM NaF, 100 mM Na3VO4, 0.5% NP-40, 1% Triton X-100, 1 mM PMSF (pH 7.4)] with freshly added protease inhibitor cocktail, Protease Inhibitor Cocktail Set III (Calbiochem, La Jolla, Calif., USA). […] The protein content in the lysates was measured by DC BioRad assay (BioRad Laboratories, Hercules, Calif.) as per the manufacturer's protocol.
EMSA for NFκB was performed using Lightshift™ chemiluminescent EMSA kit (Pierce, Rockford, Ill., USA) by following the manufacturer's protocol. […] The biotin end-labeled DNA was detected using streptavidin-horseradish peroxidase conjugate and a chemiluminescent substrate. […]

IκBα protein = assay: TPA-induced phosphorylation and degradation of IκBα (western blot); type: in vivo, mouse
Protocol: FIG. 6. Inhibitory effect of Lupeol on TPA-induced activation of IKKα, and phosphorylation and degradation of IκBα in CD-1 mice: At different times after treatment, the animals were sacrificed, epidermal cytosolic was prepared, and protein expression was determined. Equal loading was confirmed by stripping the immunoblot and reprobing it for β-actin. The immunoblots shown here are representative of three independent experiments with similar results. The values above each lane indicate relative density of the band normalized to β-actin.
The animals were shaved on the dorsal side of the skin, divided into four groups and treated topically on the shaved area with either 0.4 ml vehicle (acetone), or TPA (3.2 nmol/0.4 ml acetone/animal, v/v), or Lupeol (1 or 2 mg/0.2 ml acetone/animal, w/v) followed 30 min later with TPA (3.2 nmol/0.2 ml acetone/animal). […]
as §1

C=C(C)[C@@H]1CC[C@]2(C)CC[C@]3(C)[C@H](CC[C@@H]4[C@@]5(C)CC[C@H](O)C(C)(C)[C@@H]5CC[C@]43C)[C@@H]12 [Lupeol, Lup-20(29)-en-3β-ol]
TPA-induced NFκB/p65 activation and nuclear translocation (NFκB/p65): inhibited
TPA-induced epidermal NFκB DNA binding activity [1]: significantly inhibited
TPA-induced degradation of IκBα protein (IκBα protein; topical Lupeol 30 min prior to TPA): significant inhibition
TPA-induced phosphorylation of IκB protein (Ser32) (IκBα protein; topical Lupeol prior to TPA): dose dependent inhibition
